Results from patent US20260248131A1, “AGROCHEMICAL FORMULATIONS COMPRISING CRYSTALLINE FORM A OF 4-[(6-CHLORO-3-PYRIDYL-METHYL )(2,2-DIFL UOROETHYL )AMINO]FURAN-2(5H)-ONE” (BAYER AKTIENGESELLSCHAFT, priority 2022, published 2026).
In brackets after ≈: the same amount, converted by molar mass.

What was measured:
[1] = physchem; type: physicochemical
Description: The water solubility of FPF polymorph A and B was determined by saturating a certain amount of demineralized water with the respective polymorph, stirring the resulting saturated suspension overnight, filtering the undissolved solid residue, and measuring the dissolved concentration of FPF in the filtrate.

[2] = test system: bird cherry-oat aphid Rhopalosiphum padi; experiment: Systemic efficacy of FPF FS 480 as barley seed treatment against aphids; type: in vivo; details: seed treatment with FS 480
Text: Physico-chemical properties are key drivers for systemic plant uptake and biological activity. To test the efficacy of different FPF modifications against the bird cherry-oat aphid Rhopalosiphum padi a sufficient number of barley seeds (variety “Scarlett”, thousand kernel weight: 43.6 g) were manually dressed with a defined amount of the Flupyradifurone FS480 formulated with 100% Form A, 100% Form B and a combination of 99% Form A and 1% Form B, respectively. Test concentrations were 0.15 g active ingredient per kg of seed (commercial dose rate in cereals) and 0.075 g active ingredient per kg of seed. Longitudinal boxes were filled with 5,900 g of a sandy loam soil (75.1% sand, 10.3% clay, 14.8% silt, 1.75% humus, pH 6.9) and 15 seeds per box were sown at spacing of approx. 2.5 cm and at depth of 3 cm. After sowing, boxes were watered to reach 50-70% of field capacity and covered with plastic foil until first plants were emerging. Aphid infestation was conducted at the second leaf stage by adding multiple pieces of infested leaf material to each test box. A second re-infestation was carried out at 3 days after the first infestation using methods described previously. The biological activity of tested FPF modifications was evaluated at 3 and 7 days after the initial infestation by a visual assessment of the colonized leaf area in comparison to the untreated and infested control. Results were expressed in percent efficacy. […] Growing conditions were at a constant temperature of 20° C., 50% relative humidity and 14 hours of illumination using sodium pressure lamps. The experiment comprised 3 replicates per treatment.

Structure (SMILES)	reduced water solubility of FPF form A [1]	water solubility compared with form B [1]	water solubility of polymorphic form A as share of that of polymorphic form B [1]	solubility ([1]; water, thermodynamic from solid, Water Solubility)	systemic biological efficacy compared with form B ([2]; listed as FPF form A)	systemic biological efficacy compared with form B ([2]; listed as form A)	systemic biological efficacy compared with form B ([2]; listed as polymorphic form A)	Water Solubility [1]
O=C1C=C(N(Cc2ccc(Cl)nc2)CC(F)F)CO1 [Polymorph A, 4-[(6-chloro-3-pyridylmethyl)(2,2-difluoroethyl)amino]furan-2(5H)-one]	60%	significantly lower than that of form B	60%	2000 µg/mL (≈ 6.93 mM)	does not lead to a reduced biological efficacy in comparison to FPF form B	not reduced	at the same level as that of polymorphic form B	
O=C1C=C(N(Cc2ccc(Cl)nc2)CC(F)F)CO1 [Polymorph B, 4-[(6-chloro-3-pyridylmethyl)(2,2-difluoroethyl)amino]furan-2(5H)-one, reference compound]								3200 µg/mL
